Data from PubChem BioAssay AID1671438.

Target: Tyrosine-protein kinase Yes (Homo sapiens) (UniProt P07947)
Assay: YES1 kinase inhibition, dose response, biochemical, Z'-LYTE, FRET readout, direct format (AID 1671438)
Conditions: Z'-LYTE FRET kinase activity, recombinant YES1

Sequence of Tyrosine-protein kinase Yes (Homo sapiens) (P07947 whole entry, looked up): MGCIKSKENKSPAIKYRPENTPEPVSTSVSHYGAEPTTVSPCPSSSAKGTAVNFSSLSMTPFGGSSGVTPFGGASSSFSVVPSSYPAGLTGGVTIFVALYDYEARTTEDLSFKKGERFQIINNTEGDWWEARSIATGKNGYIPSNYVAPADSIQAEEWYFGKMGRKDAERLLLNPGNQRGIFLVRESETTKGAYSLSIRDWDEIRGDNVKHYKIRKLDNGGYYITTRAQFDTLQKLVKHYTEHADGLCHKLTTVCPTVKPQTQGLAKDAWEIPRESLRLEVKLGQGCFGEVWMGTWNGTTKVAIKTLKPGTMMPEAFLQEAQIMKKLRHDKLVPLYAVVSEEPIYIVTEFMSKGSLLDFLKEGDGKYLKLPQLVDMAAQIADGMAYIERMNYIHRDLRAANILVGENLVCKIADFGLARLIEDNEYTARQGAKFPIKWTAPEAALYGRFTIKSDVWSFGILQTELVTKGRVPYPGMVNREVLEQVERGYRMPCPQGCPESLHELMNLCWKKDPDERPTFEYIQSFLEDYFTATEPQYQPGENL

SMILES: COc1cc2ncnc(Nc3cccc(Cl)c3)c2cc1OC
- IC50: 0.924 µM
